Measured values: ChEMBL document CHEMBL1201862, “PubChem BioAssay data set” (2004)
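96-well plates; 48 h exposure; 5 concentrations. Endpoints by linear interpolation between flanking doses. Not reached: highest tested concentration assigned. GI50: concentration for 50% inhibition of growth.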 Activity calls are given as the source filed them. Cut-off read from the data, not from the text of the source: active = GI50 up to about 1.1 µM and inactive = higher.

What was measured:
Assay in all cases: growth of human tumour cells (NCI), 48 h
BT-549 = system: BT-549
MDA-MB-435 = system: MDA-MB-435
SNB-78 = system: SNB-78
PC-3 = system: PC-3
TK-10 = system: TK-10
SF-268 = system: SF-268
NCI-H23 = system: NCI-H23
786-0 = system: 786-0
MDA-N = system: MDA-N
U-251 = system: U-251
CCRF-CEM = system: CCRF-CEM
RXF 393 = system: RXF 393
OVCAR-3 = system: OVCAR-3
T47D = system: T47D
M14 = system: M14
SK-MEL-2 = system: SK-MEL-2
MCF7 = system: MCF7
UO-31 = system: UO-31
HOP-62 = system: HOP-62
SK-OV-3 = system: SK-OV-3

In the case of `CN(C)c1ccc(/C=C/c2cc[n+](C)c3ccccc23)cc1`, the GI50 (BT-549) is reported as 437 nM (active), the GI50 (MDA-MB-435) is reported as 2030 nM (inactive) and the GI50 (SNB-78) is reported as 7590 nM (inactive). For the same molecule, the GI50 (PC-3) was 1730 nM (inactive), the GI50 (TK-10) was 3710 nM (inactive) and the GI50 (SF-268) was 6100 nM (inactive). For the same molecule, the GI50 (NCI-H23) was 2110 nM (inactive), the GI50 (786-0) was 4270 nM (inactive) and the GI50 (MDA-N) was 2270 nM (inactive). For the same molecule, the GI50 (U-251) was 2750 nM (inactive), the GI50 (CCRF-CEM) was 1900 nM (inactive) and the GI50 (RXF 393) was 7100 nM (inactive). The GI50 (OVCAR-3) was 1770 nM (inactive), the GI50 (T47D) was 652 nM (active) and the GI50 (M14) was 3440 nM (inactive). For the same molecule, the GI50 (SK-MEL-2) was 2270 nM (inactive), the GI50 (MCF7) was 2290 nM (inactive) and the GI50 (UO-31) was 23800 nM (inactive). The GI50 (HOP-62) was 4630 nM (inactive) and the GI50 (SK-OV-3) was 5810 nM (inactive).
